Tests used:
Smn protein = Smn protein assay (HTRF) in cultured cells (SMA patient fibroblasts GM03813); type: cell-based, human; details: 48 hours; for EC1.5x for Smn protein expression: SMA patient fibroblast cells (GM03813), HTRF, 7-point concentration data, concentration producing 1.5 times Smn protein vs DMSO vehicle control; for maximum fold (Fold) increase of Smn protein: SMA patient fibroblast cells, 7-point concentration curve, relative to vehicle control
Summary of the method: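 Smn level is expressed as fold over vehicle, from blank-corrected ΔF of the 665/620 nm HTRF ratio. Readout used anti-SMN d2 and kryptate antibodies on RIPA lysates. GM03813 SMA fibroblasts had 48 h exposure at 37° C to seven 3.16-fold compound dilutions, run in triplicate.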

[1] = tested on: SMN2 minigene mRNA (SMN2-A minigene construct); assay: SMN2 minigene mRNA splicing RT-qPCR assay in cultured cells; type: cell-based, human; details: Homo sapiens, HEK293-H; HEK293H cells stably transfected with SMN2-A minigene, 24 hours, 7-point concentration data; concentration giving 1.5-fold SMN2 full length mRNA relative to vehicle-treated cells; read-out: EC1.5x for production of full length SMN2 mRNA
Summary of the method: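 Full-length SMN2 minigene mRNA, measured by exon 7/luciferase-specific RT-qPCR that excludes endogenous SMN1/SMN2, was normalized to GAPDH and expressed relative to vehicle-treated cells via modified ΔΔCt. Stably transfected HEK293H cells received compound (7-point, 3.16-fold series, duplicates) for 24 h at 37 °C.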

SMILES	melting point	EC1.5x for Smn protein expression (Smn protein)	maximum fold (Fold) increase of Smn protein (Smn protein)	EC (1.5-fold) [1]
C[C@@H]1CN(c2ccc3cc(-c4cn5cccc(F)c5n4)c(=O)oc3n2)C[C@H](C)N1C [Cpd 119, 3-(8-fluoroimidazo[1,2-a]pyridin-2-yl)-7-[(3R,5 S)-3,4,5-trimethylpiperazin-1-yl]-2H-pyrano[2,3-b]pyridin-2-one]	242 to 245 °C	**** (an EC1.5×≦0.3 μM is indicated by four stars (****))	**** (a fold increase between >1.5 and ≦1.65 is indicated by four stars (****))	≤ 0.1 µM
C[C@@H]1CN(c2ccc3cc(-c4cn5cccc(Cl)c5n4)c(=O)oc3n2)C[C@H](C)N1C [Cpd 120, 3-(8-chloroimidazo[1,2-a]pyridin-2-yl)-7-[(3R,5S)-3,4,5-trimethylpiperazin-1-yl]-2H-pyrano[2,3-b]pyridin-2-one]	241 to 245 °C		*** (a fold increase between >1.35 and ≦1.5 is indicated by three stars (***))	≤ 0.1 µM
C[C@@H]1CN(c2ccc3cc(-c4cn5ccccc5n4)c(=O)oc3n2)C[C@H](C)N1C [Cpd 121, 3-(imidazo[1,2-a]pyridin-2-yl)-7-[(3R,5S)-3,4,5-trimethylpiperazin-1-yl]-2H-pyrano[2,3-b]pyridin-2-one]	242 to 246 °C	* (An EC1.5× for Smn protein expression between >3 μM and ≦10 μM is indicated by one star (*))	*** (a fold increase between >1.35 and ≦1.5 is indicated by three stars (***))	≤ 0.1 µM
Cc1cc(F)c2nc(-c3cc4ccc(N5C[C@H](C)NC[C@H]5C)nc4oc3=O)cn2c1 [Cpd 122, 7-[(2R,5S)-2,5-dimethylpiperazin-1-yl]-3-(8-fluoro-6-methylimidazo[1,2-a]pyridin-2-yl)-2H-pyrano[2,3-b]pyridin-2-one]	195 to 198 °C	**** (an EC1.5×≦0.3 μM is indicated by four stars (****))	**** (a fold increase between >1.5 and ≦1.65 is indicated by four stars (****))	≤ 0.1 µM
Cc1cn2cc(-c3cc4ccc(N5C[C@H](C)N(C)C[C@H]5C)nc4oc3=O)nc2c(C)n1 [Cpd 123, 3-(6,8-dimethylimidazo[1,2-a]pyrazin-2-yl)-7-[(2R,5S)-2,4,5-trimethylpiperazin-1-yl]-2H-pyran[2,3-b]pyridin-2-one]	234 to 236 °C	*** (an EC1.5× between >0.3 μM and ≦1 μM is indicated by three stars (***))	**** (a fold increase between >1.5 and ≦1.65 is indicated by four stars (****))	0.1 to 0.3 µM
Cc1ccc2nc(-c3cc4ccc(N5C[C@@H]6C[C@H]5CN6C)nc4oc3=O)cn2c1 [Cpd 125, 7-[(1S,4S)-5-methyl-2,5-diazabicyclo[2.2.1]hept-2-yl]-3-(6-methylimidazo[1,2-a]pyridin-2-yl)-2H-pyrano[2,3-b]pyridin-2-one]	211 to 213 °C	**** (an EC1.5×≦0.3 μM is indicated by four stars (****))	***** (a fold increase >1.65 is indicated by five stars (*****))	0.1 to 0.3 µM
CCN1CCCN(c2ccc3cc(-c4cn5cccnc5n4)c(=O)oc3n2)CC1 [Cpd 126, 7-(4-ethyl-1,4-diazepan-1-yl)-3-(imidazo[1,2-a]pyrimidin-2-yl)-2H-pyrano[2,3-b]pyridin-2-one]	271 to 273 °C		*** (a fold increase between >1.35 and ≦1.5 is indicated by three stars (***))	0.1 to 0.3 µM
CCN1CCCN(c2ccc3cc(-c4cn5ccccc5n4)c(=O)oc3n2)CC1 [Cpd 127, 7-(4-ethyl-1,4-diazepan-1-yl)-3-(imidazo[1,2-a]pyridin-2-yl)-2H-pyrano[2,3-b]pyridin-2-one]	285 to 288 °C	*** (an EC1.5× between >0.3 μM and ≦1 μM is indicated by three stars (***))	**** (a fold increase between >1.5 and ≦1.65 is indicated by four stars (****))	≤ 0.1 µM
CCN1CCCN(c2ccc3cc(-c4cn5cc(C)nc(C)c5n4)c(=O)oc3n2)CC1 [Cpd 128, 3-(6,8-dimethylimidazo[1,2-a]pyrazin-2-yl)-7-(4-ethyl-1,4-diazepan-1-yl)-2H-pyrano[2,3-b]pyridin-2-one]	289 to 291 °C	**** (an EC1.5×≦0.3 μM is indicated by four stars (****))	***** (a fold increase >1.65 is indicated by five stars (*****))	≤ 0.1 µM
CCN1[C@H](C)CN(c2ccc3cc(-c4cn5ccccc5n4)c(=O)oc3n2)C[C@@H]1C [Cpd 129, 7-[(3R,5S)-4-ethyl-3,5-dimethylpiperazin-1-yl]-3-(imidazo[1,2-a]pyridin-2-yl)-2H-pyrano[2,3-b]pyridin-2-one]	281 to 284 °C	**** (an EC1.5×≦0.3 μM is indicated by four stars (****))	***** (a fold increase >1.65 is indicated by five stars (*****))	≤ 0.1 µM
CCN1CCN(c2ccc3cc(-c4cn5cc(C)ccc5n4)c(=O)oc3n2)CC1 [Cpd 130, 7-(4-ethylpiperazin-1-yl)-3-(6-methylimidazo[1,2-a]pyridin-2-yl)-2H-pyrano[2,3-b]pyridin-2-one]	235 to 237 °C	* (An EC1.5× for Smn protein expression between >3 μM and ≦10 μM is indicated by one star (*))	*** (a fold increase between >1.35 and ≦1.5 is indicated by three stars (***))	0.1 to 0.3 µM
CCN1CCN(c2ccc3cc(-c4cn5ccc(C)cc5n4)c(=O)oc3n2)CC1 [Cpd 131, 7-(4-ethylpiperazin-1-yl)-3-(7-methylimidazo[1,2-a]pyridin-2-yl)-2H-pyrano[2,3-b]pyridin-2-one]	258 to 261 °C		*** (a fold increase between >1.35 and ≦1.5 is indicated by three stars (***))	0.1 to 0.3 µM
CCN1CCN(c2ccc3cc(-c4cn5cccc(F)c5n4)c(=O)oc3n2)CC1 [Cpd 132, 7-(4-ethylpiperazin-1-yl)-3-(8-fluoroimidazo[1,2-a]pyridin-2-yl)-2H-pyrano[2,3-b]pyridin-2-one]	203 to 206 °C		** (a fold increase between >1.2 and ≦1.35 is indicated by two stars (**))	0.1 to 0.3 µM
CCN1CCN(c2ccc3cc(-c4cn5cccc(Cl)c5n4)c(=O)oc3n2)CC1 [Cpd 133, 3-(8-chloroimidazo[1,2-a]pyridin-2-yl)-7-(4-ethylpiperazin-1-yl)-2H-pyrano[2,3-b]pyridin-2-one]	218 to 221 °C	*** (an EC1.5× between >0.3 μM and ≦1 μM is indicated by three stars (***))	*** (a fold increase between >1.35 and ≦1.5 is indicated by three stars (***))	≤ 0.1 µM
CCN1CCN(c2ccc3cc(-c4cn5cc(C)cc(F)c5n4)c(=O)oc3n2)CC1 [Cpd 134, 7-(4-ethylpiperazin-1-yl)-3-(8-fluoro-6-methylimidazo[1,2-a]pyridin-2-yl)-2H-pyrano[2,3-b]pyridin-2-one]	238 to 242 °C	* (An EC1.5× for Smn protein expression between >3 μM and ≦10 μM is indicated by one star (*))	*** (a fold increase between >1.35 and ≦1.5 is indicated by three stars (***))	0.1 to 0.3 µM
CCN1CCN(c2ccc3cc(-c4cn5cc(C)cc(F)c5n4)c(=O)oc3n2)C[C@@H]1C [Cpd 137, 7-[(3S)-4-ethyl-3-methylpiperazin-1-yl]-3-(8-fluoro-6-methylimidazo[1,2-a]pyridin-2-yl)-2H-pyrano[2,3-b]pyridin-2-one]	239 to 243 °C	*** (an EC1.5× between >0.3 μM and ≦1 μM is indicated by three stars (***))	**** (a fold increase between >1.5 and ≦1.65 is indicated by four stars (****))	≤ 0.1 µM
CCN1CCCN(c2ccc3cc(-c4cn5cc(C)cc(F)c5n4)c(=O)oc3n2)CC1 [Cpd 138, 7-(4-ethyl-1,4-diazepan-1-yl)-3-(8-fluoro-6-methylimidazo[1,2-a]pyridin-2-yl)-2H-pyrano[2,3-b]pyridin-2-one]	195 to 200 °C	**** (an EC1.5×≦0.3 μM is indicated by four stars (****))	**** (a fold increase between >1.5 and ≦1.65 is indicated by four stars (****))	≤ 0.1 µM
CCN1CCCN(c2ccc3cc(-c4cn5cccc(F)c5n4)c(=O)oc3n2)CC1 [Cpd 139, 7-(4-ethyl-1,4-diazepan-1-yl)-3-(8-fluoroimidazo[1,2-a]pyridin-2-yl)-2H-pyrano[2,3-b]pyridin-2-one]	189 to 191 °C	**** (an EC1.5×≦0.3 μM is indicated by four stars (****))	**** (a fold increase between >1.5 and ≦1.65 is indicated by four stars (****))	≤ 0.1 µM
